# Values of other authors in US20240374627A1, “A PHARMACEUTICAL COMPOSITION COMPRISING COMBINATION OF SITAGLIPTIN AND EMPAGLIFLOZIN” (UNISON PHARMACEUTICALS PVT. LTD., priority 2021, published 2024).
# Where two headings read alike, the source gives them in different places.
# What was measured:
# [1] = healthy volunteers; Brand et al., Adv Ther 2012
solubility (acetonitrile),"solubility (aqueous media between pH 1-7.4, European assessment report of Jardiance)",solubility (ethanol),solubility (methanol),solubility (toluene),solubility (water (pH 1-7.4)),"solubility (N,N-dimethyl formamide)",solubility (acetone),solubility (isopropanol),solubility (isopropyl acetate),solubility (water),SMILES,effect of coadministration on the pharmacokinetics of either drug [1]
slightly soluble,slightly soluble,slightly soluble,sparingly soluble,practically insoluble,very slightly soluble,–,–,–,–,–,"OC[C@H]1O[C@@H](c2ccc(Cl)c(Cc3ccc(O[C@H]4CCOC4)cc3)c2)[C@H](O)[C@@H](O)[C@@H]1O [Empagliflozin, (1S)-1,5-anhydro-1-(4-chloro-3-{4-[(3S)-tetrahydrofuran-3-yloxy]benzyl}phenyl)-D-glucitol]",without specifying any clinically relevant effect
soluble,–,soluble,slightly soluble,–,–,soluble,soluble,insoluble,insoluble,soluble,"N[C@@H](CC(=O)N1CCn2c(nnc2C(F)(F)F)C1)Cc1cc(F)c(F)cc1F [Sitagliptin, 7-[(3R)-3-amino-1-oxo-4-(2,4,5-trifluorophenyl)butyl]-5,6,7,8-tetrahydro-3-(trifluoromethyl)-1,2,4-triazolo[4,3-a]pyrazine phosphate (1:1) monohydrate]",without specifying any clinically relevant effect
